# Experimental data: US20230075521A1, “RESVERATROL PHARMACEUTICAL COMPOSITIONS AND METHODS OF USE THEREOF” (priority 2021, published 2023)
# “And” between values parts separate entries of the source, which are not always exact repeats. Identical values can stand only once. Like-named read-outs stand apart in the source and are kept apart here.
# Tests used:
# [1] = system: serum cytokines and chemokines; assay: Serum cytokine and chemokine levels (48-Plex ProcartaPlex, Luminex); format: in vivo, 3×Tg-AD mouse; settings: 50 mg/kg oral, 9 months
# Experimental: At study endpoints (age 15 months for sub-chronic study, age 13 months for long-term study), mice were anaesthetized with isoflurane and blood was collected by transcardial puncture. Blood was stored on ice and then centrifuged at 10,000×g at 4° C. for 10 min to collect serum and stored at −80° C. until use. The brain was then extracted and quickly dissected on ice to collect prefrontal cortex (PFC), hippocampus, entorhinal cortex (ERC), and cerebellum, which were immediately frozen in liquid nitrogen. The samples were stored at −80° C. until processed for RNA or protein extraction. For each mouse, brain regions from one hemisphere were used for RNA preparation and qPCR and sections from the other hemisphere were used for protein work including ELISAs.
# Human Aβ1-42, Aβ1-40, phosphorylated tau Ser 396, phosphorylated tau Thr181, and total tau were measured in brain tissue by enzyme linked immuno-sorbent assay (ELISA; Invitrogen by Thermo) and normalized to total protein. All the kits were used as per the manufacturer's instructions and measured using the EnVision® multimode plate reader (Perkin Elmer). Serum and brain tissue protein extracts were analyzed for cytokine and chemokine levels using the Immune Monitoring 48-Plex Mouse ProcartaPlex™ Panel (Invitrogen by Thermo) according to manufacturer's standard protocol and read using Luminex xMAP (multi-analyte profiling) technology.
# [2] = cited from earlier work
smiles,measurement,setting,value
"Oc1ccc(/C=C/c2cc(O)cc(O)c2)cc1 [RSV, (trans-)resveratrol]","IL-5 serum level, change vs vehicle",[1]; female 3×Tg-AD mice,0.05 pg/mL
same,"IL-6 serum level, change vs vehicle",[1]; female 3×Tg-AD mice,-10.05 pg/mL
same,"IL-9 serum level, change vs vehicle",[1]; female 3×Tg-AD mice,13.83 pg/mL
same,"IL-10 serum level, change vs vehicle",[1]; female 3×Tg-AD mice,-8.54 pg/mL
same,"IL-12p70 serum level, change vs vehicle",[1]; female 3×Tg-AD mice,0.15 pg/mL
same,"IL-13 serum level, change vs vehicle",[1]; female 3×Tg-AD mice,15.44 pg/mL
same,"IL-15/IL-15R serum level, change vs vehicle",[1]; female 3×Tg-AD mice,0.51 pg/mL
same,"IL-17A serum level, change vs vehicle",[1]; female 3×Tg-AD mice,-5.14 pg/mL
same,"IL-18 serum level, change vs vehicle",[1]; female 3×Tg-AD mice,-74.10 pg/mL
same,"IL-19 serum level, change vs vehicle",[1]; female 3×Tg-AD mice,-17.31 pg/mL
same,"IL-22 serum level, change vs vehicle",[1]; female 3×Tg-AD mice,-2.84 pg/mL
same,"IL-23 serum level, change vs vehicle",[1]; female 3×Tg-AD mice,16.41 pg/mL
same,"IL-25/IL-17 serum level, change vs vehicle",[1]; female 3×Tg-AD mice,-12.62 pg/mL
same,"IL-27 serum level, change vs vehicle",[1]; female 3×Tg-AD mice,0.92 pg/mL
same,"IL-28 serum level, change vs vehicle",[1]; female 3×Tg-AD mice,5.70 pg/mL
same,"IL-33 serum level, change vs vehicle",[1]; female 3×Tg-AD mice,-4.36 pg/mL
same,"IP-10 serum level, change vs vehicle",[1]; female 3×Tg-AD mice,-9.75 pg/mL
same,"KC serum level, change vs vehicle",[1]; female 3×Tg-AD mice,-41.09 pg/mL
same,"LIF serum level, change vs vehicle",[1]; female 3×Tg-AD mice,-1.86 pg/mL
same,"LIX serum level, change vs vehicle",[1]; female 3×Tg-AD mice,1701.00 pg/mL
same,"MCP-1 serum level, change vs vehicle",[1]; female 3×Tg-AD mice,-43.64 pg/mL
same,"MCP-3 serum level, change vs vehicle",[1]; female 3×Tg-AD mice,-212.20 pg/mL
same,"MIP-1a serum level, change vs vehicle",[1]; female 3×Tg-AD mice,3.71 pg/mL
same,"MIP-1b serum level, change vs vehicle",[1]; female 3×Tg-AD mice,0.17 pg/mL
same,"MIP-2 serum level, change vs vehicle",[1]; female 3×Tg-AD mice,-7.86 pg/mL
same,"RANTES serum level, change vs vehicle",[1]; female 3×Tg-AD mice,-9.09 pg/mL
same,"TNFa serum level, change vs vehicle",[1]; female 3×Tg-AD mice,-2.67 pg/mL
same,"sRANKL serum level, change vs vehicle",[1]; female 3×Tg-AD mice,-0.58 pg/mL
same,"Eotaxin serum level, change vs vehicle","[1]; female 3×Tg-AD mice, 50 mg/kg",-3162 ± 1165 pg/mL and -3162.00 pg/mL
same,"Leptin serum level, change vs vehicle","[1]; female 3×Tg-AD mice, 50 mg/kg",-33707 ± 9226 pg/mL and -33707.0 pg/mL
same,"BAFF serum level, change vs vehicle",[1]; male 3×Tg-AD mice,-44.06 pg/mL
same,"Eotaxin serum level, change vs vehicle",[1]; male 3×Tg-AD mice,943.10 pg/mL
same,"G-CSF serum level, change vs vehicle",[1]; male 3×Tg-AD mice,-5.14 pg/mL
same,"IFNg serum level, change vs vehicle",[1]; male 3×Tg-AD mice,-0.66 pg/mL
same,"IL-1b serum level, change vs vehicle",[1]; male 3×Tg-AD mice,-5.86 pg/mL
same,"IL-2RA serum level, change vs vehicle",[1]; male 3×Tg-AD mice,-21.16 pg/mL
same,"IL-5 serum level, change vs vehicle",[1]; male 3×Tg-AD mice,8.72 pg/mL
same,"IL-6 serum level, change vs vehicle",[1]; male 3×Tg-AD mice,-60.32 pg/mL
same,"IL-9 serum level, change vs vehicle",[1]; male 3×Tg-AD mice,-9.66 pg/mL
same,"IL-10 serum level, change vs vehicle",[1]; male 3×Tg-AD mice,2.25 pg/mL
same,"IL-12p70 serum level, change vs vehicle",[1]; male 3×Tg-AD mice,-13.72 pg/mL
same,"IL-13 serum level, change vs vehicle",[1]; male 3×Tg-AD mice,-72.28 pg/mL
same,"IL-15/IL-15R serum level, change vs vehicle",[1]; male 3×Tg-AD mice,-11.93 pg/mL
same,"IL-17A serum level, change vs vehicle",[1]; male 3×Tg-AD mice,-6.64 pg/mL
same,"IL-18 serum level, change vs vehicle",[1]; male 3×Tg-AD mice,-415.10 pg/mL
same,"IL-19 serum level, change vs vehicle",[1]; male 3×Tg-AD mice,-23.06 pg/mL
same,"IL-23 serum level, change vs vehicle",[1]; male 3×Tg-AD mice,-12.74 pg/mL
same,"IL-25/IL-17 serum level, change vs vehicle",[1]; male 3×Tg-AD mice,-235.80 pg/mL
same,"IL-28 serum level, change vs vehicle",[1]; male 3×Tg-AD mice,-44.41 pg/mL
same,"IL-33 serum level, change vs vehicle",[1]; male 3×Tg-AD mice,107.60 pg/mL
same,"IP-10 serum level, change vs vehicle",[1]; male 3×Tg-AD mice,-47.95 pg/mL
same,"KC serum level, change vs vehicle",[1]; male 3×Tg-AD mice,-90.17 pg/mL
same,"LIF serum level, change vs vehicle",[1]; male 3×Tg-AD mice,-8.06 pg/mL
same,"LIX serum level, change vs vehicle",[1]; male 3×Tg-AD mice,-6715.00 pg/mL
same,"Leptin serum level, change vs vehicle",[1]; male 3×Tg-AD mice,-1768.00 pg/mL
same,"MIP-1a serum level, change vs vehicle",[1]; male 3×Tg-AD mice,4.01 pg/mL
same,"MIP-1b serum level, change vs vehicle",[1]; male 3×Tg-AD mice,-6.40 pg/mL
same,"RANTES serum level, change vs vehicle",[1]; male 3×Tg-AD mice,-24.75 pg/mL
same,"TNFa serum level, change vs vehicle",[1]; male 3×Tg-AD mice,-0.08 pg/mL
same,"VEGF-A serum level, change vs vehicle",[1]; male 3×Tg-AD mice,-17.68 pg/mL
same,"sRANKL serum level, change vs vehicle",[1]; male 3×Tg-AD mice,4.06 pg/mL
same,"IL-3 serum level, change vs vehicle","[1]; male 3×Tg-AD mice, 50 mg/kg",-1.53 ± 0.26 pg/mL and -1.53 pg/mL
same,"IL-22 serum level, change vs vehicle","[1]; male 3×Tg-AD mice, 50 mg/kg",-23.37 ± 5.2 pg/mL and -23.37 pg/mL
same,"MIP-2 serum level, change vs vehicle","[1]; male 3×Tg-AD mice, 50 mg/kg",-16.16 ± 5.95 pg/mL and -16.16 pg/mL
same,Cmax,[2]; 1 g encapsulated dose (Turner et al. 2015),85 ng/mL
same,Cmax,[2]; 2.5 g micronized dose (Howells et al. 2011),1942 ng/mL
same,"AUC exposure, estimated","[2]; 3,000 mg/day, healthy volunteers, published data",2100 ng·h/mL
